Measurements as given in patent US10413583B2, “Synthetic substrates for enzymes that catalyze reactions of modified cysteines and related methods” (The University of Chicago, priority 2016, dated 2019).
“Also recorded” adds a separate entry of the source.

What was measured:
[1] = test system: HEPG2 cells; test: Epifluorescent imaging of DPP-5 and diacetyl rhodol in HepG2 cells (PalmB, ML348, ML349, palmitate); type: cell-based, human; details: for decrease in intensity of the signal from DPP-5: 10 μM inhibitor
Protocol: 250,000 HEK293T cells/well, 120,000 HeLa cells/well, or 100,000 HepG2 cells/well were plated in 700 μL DMEM glutamax (10% FBS+1% P/S) into 4-well chambered imaging dish (D35C4-20-1.5-N, Cellvis, Mountain View, Calif., United States of America), which were precoated with 5 μg Poly-D-lysine (30-70 KDa, Alfa Aesar, Haverhill, Mass., United States of America) for 2 h. After 20-24 h, the media was replaced by 1 μM Hoechst 33342 and DMSO/5 μM PalmB in 400 μL DMEM glutamax. After 30 min of incubation at 37° C., the cells were washed with 400 μL of Live Cell Imaging Solution and replaced by 1 μM DPP-5 with DMSO or 5 μM of PalmB in Live Cell Imaging Solution. After 20 min of incubation at 37° C., images were obtained on an inverted epifluorescence microscope (Olympus IX83; Olympus Corporation, Tokyo, Japan) attached with EMCCD camera (Photometrics EVOLVE™ Delta, Photometrics, Tucson, Ariz., United States of America) with 40× oil objective (N/A 1.3) for DPP-5 (excitation filter 500/20, dichroic chroma 89007, emission filter 535/30), Hoechst 33342 (excitation filter 402/15, emission filter 455/50, dichroic chroma 89013), and brightfield. Analyses were performed in ImageJ. For data analysis, the average fluorescence intensity per image in each experimental condition was obtained by selecting ROI in Brightfield and applying that to the corresponding DPP-5 image, average background fluorescence intensity was subtracted and data was normalized to the average fluorescence intensity of the DMSO control. Each experiment was repeated in at least two biological replicates with identical results.
16,000 HepG2 cells/well were plated in 100 μL DMEM glutamax (10% fetal bovine serum (FBS)) into 4 wells of a 96-well chambered imaging dish (P96-1-N, Cellvis, Mountain View Calif., United States of America), which were precoated with 0.7 μg Poly-D-lysine (30-70 KDa, Alfa Aesar, Haverhill, Mass., United States of America) for 2 hrs. After 24 h, cells were washed with Live Cell Imaging Solution and replaced by 1 μM Hoechst 33342 and DMSO/10 μM ML348/10 μM ML349/10 μM of both ML348 and ML349 in 100 μL DMEM glutamax. After 30 min of incubation at 37° C., the cells were washed with 100 μL of Live Cell Imaging Solution and replaced by 1 μM DPP-5 in Live Cell Imaging Solution. After 20 min of incubation at 37° C., images were obtained on an inverted epifluorescence microscope (Leica DMi8; Leica Microsystems, Wetzlar, Germany) equipped with a camera (Hamamatsu Orca-Flash 4.0; Hamamatsu, Hamamatsu City, Japan) with 63× oil objective (N/A 1.4) and light source (Sutter Lamda XL, 300 W Xenon; Sutter Instrument, Novato, Calif., United States of America) for DPP-5 (YFP filter cube 1525306), Hoechst 33342 (DAPI filter cube), and brightfield using Leica LASX software (Leica Microsystems, Wetzlar, Germany). Analyses were performed in ImageJ. Each experiment was repeated in three biological replicates and 8-12 images were considered for plotting bar graphs for quantification. For detailed data analysis, the average fluorescence intensity per image in each experimental condition was obtained by selecting ROI in Brightfield and applying that to the corresponding DPP-5 image, average background fluorescence intensity was subtracted and data was normalized to the average fluorescence intensity of the control experiment. […] 250,000 HEK293T cells/well were plated in 700 μL DMEM glutamax (10% FBS+1% P/S) into three wells of a 4-well chambered imaging dish (D35C4-20-1.5-N, Cellvis, Mountain View, Calif., United States of America), which were precoated with 5 μg Poly-Dlysine (30-70 KDa, Alfa Aesar, Haverhill, Mass., United States of America) for 2 h. After 18 h, the media was replaced by 1 μM Hoechst 33342 in 400 μL DMEM glutamax. […] After 20 min of incubation at 37° C., images were obtained and analyzed as described above. […]

[2] = test system: HEK293T cells; test: Epifluorescent imaging of DPP-5 (and DPP-1, DPP-4) in HEK293T cells; type: cell-based, human
Protocol: 250,000 HEK293T cells/well, 120,000 HeLa cells/well, or 100,000 HepG2 cells/well were plated in 700 μL DMEM glutamax (10% FBS+1% P/S) into 4-well chambered imaging dish (D35C4-20-1.5-N, Cellvis, Mountain View, Calif., United States of America), which were precoated with 5 μg Poly-D-lysine (30-70 KDa, Alfa Aesar, Haverhill, Mass., United States of America) for 2 h. After 20-24 h, the media was replaced by 1 μM Hoechst 33342 and DMSO/5 μM PalmB in 400 μL DMEM glutamax. After 30 min of incubation at 37° C., the cells were washed with 400 μL of Live Cell Imaging Solution and replaced by 1 μM DPP-5 with DMSO or 5 μM of PalmB in Live Cell Imaging Solution. […] For data analysis, the average fluorescence intensity per image in each experimental condition was obtained by selecting ROI in Brightfield and applying that to the corresponding DPP-5 image, average background fluorescence intensity was subtracted and data was normalized to the average fluorescence intensity of the DMSO control. […]

[3] = 5 μM PalmB pretreatment, 1 μM DPP-5

COc1ccc(N2CCN(C(=O)c3cc4c(s3)-c3ccccc3S(=O)(=O)C4)CC2)cc1 [ML349]
decrease in intensity of the signal from DPP-5 ([1]; 1 μM DPP-5): no change in signal

O=C(CN1CCN(C(=O)c2ccco2)CC1)Nc1cc(C(F)(F)F)ccc1Cl [ML348]
decrease in intensity of the signal from DPP-5 ([1]; 1 μM DPP-5): about 30%

CCCCCCCCCC[C@@H]1C(=O)O[C@H]1CCc1ccc(OC)c(OC)c1 [PalmB, palmostatin B]
fluorescent signal of DPP-5 abolished [2, 3]: about 95% | turn-on response of DPP-5 blocked [1, 3]: more than 95% | effect on DPP-5 signal in palmitate experiment ([1]; 1% BSA with or without 1 mM palmitate, 5 μM PalmB): reduces the intensity of the DPP-5 signal

CCCCCCCCCCCCCCCC(=O)SC[C@@H](C(=O)NC)N(C)C(=O)Oc1ccc2c(c1)Oc1cc(N3CCN(C(=O)CCC(=O)O)CC3)ccc1C21OC(=O)c2ccccc21 (stereo partly shown) [DPP-5]
probe fluorescent signal in cells ([2]; 1 μM probe for 20 minutes): bright, intracellular fluorescent signal; also recorded: robust fluorescent signal | probe fluorescent signal in cells ([1]; 1 μM probe for 20 minutes): robust intracellular fluorescent signal
